The IC50 is the point on the concentration scale where inhibition reaches its midpoint. Read a low IC50 as higher potency.

For test [1], the species on record is Bos taurus. Description: Ratio of IC50 of chlorpromazine to IC50 of compound for bovine brain PDE1.
Test [2] is described as follows: Inhibition of bovine brain PDE1. Details: species or system Bos taurus.

Take `CC1(C)c2[nH]c3cc(Cl)c(Cl)cc3c2CC23CN4CCCC4(CC21)C(=O)N3` (racemic): the Ratio IC50 in test [1] turned out to be 1.1. This compound had a half-inhibitory concentration (IC50) in test [2] of 16 µM.

`CC1(C)c2[nH]c3ccc(Cl)cc3c2C[C@@]23NC(=O)[C@]4(CCCN4C2=O)C[C@@H]13`: the Ratio IC50 in test [1] was 0.4. The IC50 in test [2] amounted to 31.5 µM.

For the compound `CC1(C)c2[nH]c3cc(Cl)ccc3c2C[C@@]23NC(=O)[C@]4(CCCN4C2=O)C[C@@H]13`, in test [1], the Ratio IC50 was found to be 0.2. This compound gave an IC50 in test [2] of 61.8 µM.

`CC1(C)c2[nH]c3ccc(Cl)c(Cl)c3c2C[C@@]23NC(=O)[C@]4(CCCN4C2=O)C[C@H]13`: the Ratio IC50 in test [1] worked out at 0.2. This compound also yielded an IC50 in test [2] of 45.4 µM.

Consider `CC1(C)c2[nH]c3ccccc3c2C[C@@]23CN4CCC[C@]4(C[C@@H]12)C(=O)N3`, for which the Ratio IC50 in test [1] is 0.5. In addition, in test [2], the IC50 was 35.7 µM.

Regarding `CC1(C)c2[nH]c3cc(Cl)c(Cl)cc3c2C[C@@]23CN4CCC[C@]4(C[C@H]12)C(=O)N3`, the Ratio IC50 in test [1] was found to be 0.1. In addition, in test [2], it took 134 µM to reach half-maximal inhibition (IC50).

As for `CC1(C)c2[nH]c3cc(Cl)ccc3c2C[C@@]23NC(=O)[C@]4(CCCN4C2=O)C[C@H]13`, the Ratio IC50 in test [1] was found to be 0.3. In test [2], this compound came in with an IC50 of 42.8 µM.

For the compound `CC1(C)c2[nH]c3cc(Cl)c(Cl)cc3c2C[C@@]23NC[C@]4(CCCN4C2=O)C[C@H]13`, the Ratio IC50 in test [1] was determined as 0.9. Moreover, half-maximal inhibition in test [2] (IC50) required 12 µM.

Consider `CC1(C)c2[nH]c3cc(Cl)c(Cl)cc3c2C[C@@]23CN4CCC[C@]4(C[C@@H]12)C(=O)N3`, for which the Ratio IC50 in test [1] is 0.9. In addition, the IC50 in test [2] is 19.3 µM.

For `CC1(C)c2[nH]c3ccc(Cl)cc3c2C[C@@]23NC(=O)[C@]4(CCCN4C2=O)C[C@H]13`, in test [1], the Ratio IC50 turned out to be 0.2. Also, the concentration for half-maximal inhibition (IC50) in test [2] amounted to 62.3 µM.

As for `CC1(C)c2[nH]c3ccc(Cl)cc3c2C[C@@]23CN4CCC[C@]4(C[C@@H]12)C(=O)N3`, the Ratio IC50 in test [1] turned out to be 0.2. The compound further returned a 50% inhibitory concentration (IC50) in test [2] of 60.3 µM.

As to `CC1(C)c2[nH]c3ccccc3c2C[C@@]23NC(=O)[C@]4(CCCN4C2=O)C[C@H]13`, the Ratio IC50 in test [1] stood at 0.7. The half-maximal inhibitory concentration (IC50) in test [2] turned out to be 23.6 µM.

`CC1(C)c2[nH]c3cc(Cl)c(Cl)cc3c2C[C@@]23NC(=O)[C@]4(CCCN4C2=O)C[C@@H]13`: in test [1], the Ratio IC50 worked out at 0.9. This compound also came in with an IC50 in test [2] of 18.6 µM.

For the compound `CC1(C)c2[nH]c3cc(Cl)c(Cl)cc3c2C[C@@]23NC(=O)[C@]4(CCCN4C2=O)C[C@H]13`, in test [1], the Ratio IC50 came out at 0.5. The compound further displayed a half-maximal inhibitory concentration (IC50) in test [2] of 33.9 µM.

With `CC1(C)c2[nH]c3cc(Cl)ccc3c2C[C@@]23CN4CCC[C@]4(C[C@@H]12)C(=O)N3` [MALBRANCHEAMIDE B], the Ratio IC50 in test [1] came out at 0.1. Moreover, the midpoint of inhibition in test [2], the IC50, lay at 183 µM.

Turning to `CC1(C)c2[nH]c3ccccc3c2C[C@@]23NC(=O)[C@]4(CCCN4C2=O)C[C@@H]13`, the Ratio IC50 in test [1] is 0.1. The compound further registered an IC50 in test [2] of 151 µM.

Consider `CC1(C)c2[nH]c3cc(Cl)ccc3c2CC23CN4CCCC4(CC21)C(=O)N3` (racemic) [D,L-MALBRANCHEAMIDE B], for which, in test [1], the Ratio IC50 came out at 0.3. In test [2], this compound had an IC50 of 42.9 µM.

Regarding `CC1(C)c2[nH]c3ccc(Cl)c(Cl)c3c2C[C@@]23CN4CCC[C@]4(C[C@H]12)C(=O)N3`, the Ratio IC50 in test [1] turned out to be 0.1. Moreover, in test [2], it took 81.2 µM to reach half-maximal inhibition (IC50).

On to `CC1(C)c2[nH]c3ccc(Cl)c(Cl)c3c2C[C@@]23NC[C@]4(CCCN4C2=O)C[C@H]13`, for which the Ratio IC50 in test [1] was 0.4. In test [2], this compound displayed a concentration for half-maximal inhibition (IC50) of 27.5 µM.
